Test results reported in US20090304674A1, “METHODS FOR TREATING DISEASE BY REGULATING CLL CELL SURVIVAL” (priority 2005, published 2009).
“Also recorded” adds a separate entry of the source.

Assays:
[1] = system: canonical NF-κB1 pathway in CLL B cells; experiment: Immunoblot of canonical NF-κB1 pathway activation (IκBα degradation/phosphorylation, p65 nuclear translocation) in CLL B cells; format: cell-based, human; conditions: rhBAFF 50 ng/ml, 24 hours, UTC pre-incubated 1 hour
Description: Cell lysates were prepared with RIPA buffer (10 mM Tris (pH 7.4), 150 mM NaCl, 1% Triton x 100, 1% deoxycholate, 0.1% SDS, 5 mM EDTA), containing 1 mM PMSF, 0.28 TIU/ml aprotinin, 50 μg/ml leupeptin, 1 mM benzamidine, 0.7 μg/ml pepstatin. Lysates were normalized for total protein (20 μg), subjected to SDS-PAGE (4-15% gradient gels, Bio-Rad, Hercules, Calif.) and immunoblot assay. We incubated the blots with secondary antibodies that were conjugated with horseradish peroxidase. Blots then were prepared for enhanced chemiluminescence (ECL) detection system (Amersham, Little Chalfont, Buckinghamshire, UK) and subsequent autoradiography with Super RX film (Fuji, Tokyo, Japan). The mouse mAb against APRIL (APRIL8) was from Alexis Biochemicals. The mouse mAb against inhibitor of kappa B-α (IκκBα was from Imgenex (San Diego, Calif.). The antibodies against anti-phosho-MAP kinase Erk1/2 and anti-MAP kinase Erk1/2-CT were purchased from Upstate Biotechnology. Antibodies against AKT or phospho-AKT (Ser473) were from Cell Signaling (Beverly, Mass.). Rabbit polyclonal antibodies (Mcl-1, Bcl-2, and Bax) were raised against synthetic peptides.21 Also primary antibodies included β-actin (Sigma Immunochemicals, St Louis, Mo.). Anti-p52 and anti-p65 antibodies were purchased from Upstate Biotechnology.
For fractionation experiments, cells were collected by centrifugation and washed with PBS. The cell pellet containing 5×10^6 cells was suspended in 100 μl of hypotonic buffer (50 mM Tris (pH7.4), 5 mM EDTA, 10 mM NaCl, 0.05% NP-40, 1 mM PMSF, 10 μg/ml Aprotinin, 10 μg/ml Leupeptin, 10 μg/ml Pepstatin, 10 mM β-Glycerophosphate, 1 mM Na-Vanadate, 1 mM NaF). After 10 minutes the lysate was spun and the supernatant was collected as cytoplasmic lysates. The pellet was washed 5 times in hypotonic buffer containing 0.1% NP-40. The remaining pellet was suspended in 100 μl RIPA buffer containing protease and phosphatase inhibitors. After an appropriate amount of 3× sample buffer (200 mM Tris (pH 6.8), 30 mM EDTA, 30% Glycerol, 6% SDS) was added, the sample was boiled for 10 minutes, spun for 10 minutes and the supernatant was recovered as nucleus lysates. Anti-NF kappa B p52 and p65 were purchased from Upstate Biotechnology. Anti-SP-1 was purchased from Santa Cruz Biotechnology (Santa Cruz, Calif.).
Cell lysates were prepared with radioimmunoprecipitation assay (RIPA) buffer (10 mM Tris [pH 7.4], 150 mM NaCl, 1% Triton X-100, 0.1% deoxycholate, 0.1% SDS, 5 mM EDTA), containing 1× complete protease inhibitor cocktail (Roche diagnostics), 1 mM sodium fluoride (NaF), and 1 mM sodium vanadate (Na3VO4). Lysates were normalized for total protein (25 μg) and subjected to SDS-PAGE (4-15% gradient gels, Bio-Rad, Hercules, Calif.) and immunoblot assay. We incubated the blots with secondary antibodies that were conjugated with horseradish peroxidase. Blots then were prepared for enhanced chemiluminescence (ECL) detection system (Amersham, Little Chalfont, United Kingdom) and subsequent autoradiography with Super RX film (Fuji, Tokyo, Japan).
For fractionation experiments, cells were collected by centrifugation and washed with PBS. The cell pellet containing 5×10^6 cells was suspended in 100 μl of hypotonic buffer (50 mM Tris [pH7.4], 5 mM EDTA, 10 mM NaCl, 0.05% Nonidet P40 [NP-40]), containing 1× complete protease inhibitor cocktail, 1 mM NaF, and 1 mM Na3VO4. After 10 minutes, the lysate was spun and the supernatant was collected as cytoplasmic lysates. […]

IKK-2 (IKKβ) = target: T1, IKK-2 (IKKβ) (Homo sapiens, UniProt O14920); conditions: reported by Podolin and colleagues, cited from earlier work
T1 sequence (O14920 1-756): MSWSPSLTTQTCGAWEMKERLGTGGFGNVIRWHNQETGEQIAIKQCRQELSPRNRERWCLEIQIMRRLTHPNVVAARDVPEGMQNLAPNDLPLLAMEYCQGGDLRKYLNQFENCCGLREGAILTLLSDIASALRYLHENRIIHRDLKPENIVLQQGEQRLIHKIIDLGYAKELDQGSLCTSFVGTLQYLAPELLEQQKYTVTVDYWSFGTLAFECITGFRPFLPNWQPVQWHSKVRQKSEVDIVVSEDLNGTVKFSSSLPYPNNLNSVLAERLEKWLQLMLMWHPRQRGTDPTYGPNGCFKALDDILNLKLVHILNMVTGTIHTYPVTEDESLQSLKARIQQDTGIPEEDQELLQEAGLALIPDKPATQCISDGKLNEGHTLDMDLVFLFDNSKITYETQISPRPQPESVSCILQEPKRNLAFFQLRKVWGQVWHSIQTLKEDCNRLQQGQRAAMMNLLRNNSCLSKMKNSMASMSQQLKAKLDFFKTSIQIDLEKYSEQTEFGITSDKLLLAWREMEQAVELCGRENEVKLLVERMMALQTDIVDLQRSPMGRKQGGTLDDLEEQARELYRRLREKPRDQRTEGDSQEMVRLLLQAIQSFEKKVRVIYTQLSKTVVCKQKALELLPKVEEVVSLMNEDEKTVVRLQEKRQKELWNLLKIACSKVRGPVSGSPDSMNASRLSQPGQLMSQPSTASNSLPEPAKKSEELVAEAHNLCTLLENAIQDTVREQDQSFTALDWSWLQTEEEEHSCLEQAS

[2] = system: normal B cells of healthy donors; experiment: Viability of isolated normal B cells of healthy donors with or without rhBAFF and UTC; format: cell-based, human; conditions: UTC 10 μM, 48 hours
Description: CD19+ B cells of healthy donors were isolated from the buffy coat of blood samples collected from adult volunteers at the San Diego Blood Bank (San Diego, Calif.), as described.
Isolated blood mononuclear cells of patients with CLL were incubated with saturating amounts of Dynabeads coated with anti-CD2 or anti-CD14 mAbs (Dynal A.S. Oslo, Norway). Beadbound cells were removed with a strong magnetic field. Following depletion, less than 0.5% of cells were CD2+ or CD14+, whereas more than 99% were CD19+, as assessed via flow cytometry (data not shown). Peripheral normal CD19+ B cells of healthy donors were purified from the buffy coat of blood samples using CD19 Dynabeads and Detach A Beads (Dynal), following the manufacturer's instructions.
Freshly thawed CLL B cells were cultured at the concentration of 1×10^6/mL under various conditions. Determination of CLL cell viability in this study was based on the analysis of mitochondrial transmembrane potential (Δψm) using 3,3′-dehexyloxacarbocyamine iodine (DiOC6) and cell membrane permeability to PI, as described. […] The cells then were incubated at 37° C. for 15 minutes and analyzed within 30 minutes by flow cytometry using a FACSCalibur (Becton Dickinson). Fluorescence was recorded at 525 nm (FL-1) for DiOC6 and at 600 nm (FL-3) for PI.

CLL cells = experiment: Viability of CLL cells cultured with or without rhBAFF and inhibitors (DiOC6/PI flow cytometry); format: cell-based, human; conditions: UTC 10 μM, 48 hours
Description: Freshly thawed CLL B cells were cultured at the concentration of 1×10^6/mL under various conditions. Determination of CLL cell viability in this study was based on the analysis of mitochondrial transmembrane potential (Δψm) using 3,3′-dehexyloxacarbocyamine iodine (DiOC6) and cell membrane permeability to PI, as described. For viability assays, 100 μl of the cell culture was collected at the indicated time points and transferred to polypropylene tubes containing 100 μl of 80 nmol/l DiOC6 (Molecular Probes) and 2 μg/ml PI in FACS buffer. The cells then were incubated at 37° C. for 15 minutes and analyzed within 30 minutes by flow cytometry using a FACSCalibur (Becton Dickinson). Fluorescence was recorded at 525 nm (FL-1) for DiOC6 and at 600 nm (FL-3) for PI.

SMILES: NC(=O)Nc1sc(-c2ccc(F)cc2)cc1C(N)=O [UTC, 5-(4-fluorophenyl)-2-ureido-thiophene-3 carboxylic acid amide]
- inhibition of BAFF-induced translocation of p65 to the nucleus ([1]; anti-BR3 10 μg/ml): inhibited BAFF induced nuclear translocation of p65
- inhibition of rhBAFF-induced phosphorylation of IκBα ([1]; anti-BR3 or BR3-Fc 10 μg/ml): inhibited phosphorylation of IκBα
- selectivity for IKK-2 versus the other ten kinases (IKK-2 (IKKβ); p38α, p38β, p38γ, p38δ, MAPKAPK2, MKK1, MAPK2, COX-1, COX-2, JNK1): more than 550 fold
- selectivity for IKK-2 versus IKK-1 (IKK-2 (IKKβ)): 22 fold
- selectivity for IKK-2 versus JNK3 (IKK-2 (IKKβ)): 200 fold
- survival/viability of isolated normal B cells cultured without rhBAFF ([2]; 8 donors): did not have any effect on survival of isolated normal B cells; also recorded: no significant difference
- effect on pro-survival effect of exogenous rhBAFF on normal B cells ([2]; rhBAFF 50 ng/ml): could partially block the pro-survival effect of exogenous rhBAFF
- viability of CLL cells versus medium alone (CLL cells; 8 patients): significantly lower than that of CLL cells cultured with medium alone
- effect on rhBAFF-enhanced survival/viability of CLL cells (CLL cells; rhBAFF 50 ng/ml, anti-BR3 or BR3-Fc 10 μg/ml): significantly inhibited the capacity of rhBAFF to support CLL cell survival
